Target: T1, Prostate-specific membrane antigen (PSMA) (Homo sapiens, UniProt Q04609)
T1 construct: gene FOLH1; native full-length membrane protein on intact LNCaP prostate cancer cells; homodimer (known biology)
Experiment: competitive radioligand binding, LNCaP cells, filter plates
Type: cell-based
Conditions: 0.75 nM [68Ga]Ga-PSMA-10 tracer, room temperature, 45 min; non-labelled ligand (no metal)
Excerpt: competitive radioligand binding, LNCaP cells, filter plates on Prostate-specific membrane antigen (PSMA)

T1 sequence (Q04609 whole entry): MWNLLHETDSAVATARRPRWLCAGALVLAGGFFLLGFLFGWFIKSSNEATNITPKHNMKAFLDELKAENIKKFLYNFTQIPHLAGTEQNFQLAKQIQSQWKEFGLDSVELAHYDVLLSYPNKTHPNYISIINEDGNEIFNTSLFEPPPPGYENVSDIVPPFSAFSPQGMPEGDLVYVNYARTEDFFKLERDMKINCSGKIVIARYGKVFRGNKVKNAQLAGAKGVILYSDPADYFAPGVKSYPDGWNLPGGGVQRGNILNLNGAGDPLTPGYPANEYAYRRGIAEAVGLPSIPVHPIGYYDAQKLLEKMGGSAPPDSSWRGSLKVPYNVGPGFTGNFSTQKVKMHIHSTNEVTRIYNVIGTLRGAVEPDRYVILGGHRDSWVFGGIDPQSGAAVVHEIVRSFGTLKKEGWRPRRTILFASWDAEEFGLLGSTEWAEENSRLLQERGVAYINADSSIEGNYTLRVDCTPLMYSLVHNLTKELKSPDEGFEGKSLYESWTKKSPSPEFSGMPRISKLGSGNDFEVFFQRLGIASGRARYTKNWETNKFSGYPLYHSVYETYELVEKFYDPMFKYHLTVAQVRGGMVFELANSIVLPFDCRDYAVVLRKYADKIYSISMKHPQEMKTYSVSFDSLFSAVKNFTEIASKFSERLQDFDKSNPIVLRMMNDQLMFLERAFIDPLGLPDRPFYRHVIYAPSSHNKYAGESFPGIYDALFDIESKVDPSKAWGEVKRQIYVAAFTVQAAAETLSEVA

| SMILES | IC50 [nM] |
| --- | --- |
| O=C(O)CCc1ccc(O)c(CN(CCN(CC(=O)O)Cc2cc(CCC(=O)NCCCCCC(=O)NCCCC[C@H](NC(=O)N[C@@H](CCC(=O)O)C(=O)O)C(=O)O)ccc2O)CC(=O)O)c1 [PSMA-11] | 26.2 ± 2.4 |
| CN(CC(=O)O)C1(CCCCC(=O)NCCNc2c(NCCCC[C@H](NC(=O)N[C@@H](CCC(=O)O)C(=O)O)C(=O)O)c(=O)c2=O)CN(CC(=O)O)CCN(CC(=O)O)C1 [compound 14, DATA^5m.SA.KuE] | 51.1 ± 5.5 |

Source: publication PMC8588462, “Hybrid Chelator-Based PSMA Radiopharmaceuticals: Translational Approach” (Molecules, 2021)
